Laboratory results: US9326986B2, “Quinazolinone, quinolone and related analogs as sirtuin modulators” (GLAXOSMITHKLINE LLC, priority 2008, dated 2016)

Biological target: T1, SIRT1 (Homo sapiens, UniProt Q96EB6)
T1 sequence (Q96EB6 1-747): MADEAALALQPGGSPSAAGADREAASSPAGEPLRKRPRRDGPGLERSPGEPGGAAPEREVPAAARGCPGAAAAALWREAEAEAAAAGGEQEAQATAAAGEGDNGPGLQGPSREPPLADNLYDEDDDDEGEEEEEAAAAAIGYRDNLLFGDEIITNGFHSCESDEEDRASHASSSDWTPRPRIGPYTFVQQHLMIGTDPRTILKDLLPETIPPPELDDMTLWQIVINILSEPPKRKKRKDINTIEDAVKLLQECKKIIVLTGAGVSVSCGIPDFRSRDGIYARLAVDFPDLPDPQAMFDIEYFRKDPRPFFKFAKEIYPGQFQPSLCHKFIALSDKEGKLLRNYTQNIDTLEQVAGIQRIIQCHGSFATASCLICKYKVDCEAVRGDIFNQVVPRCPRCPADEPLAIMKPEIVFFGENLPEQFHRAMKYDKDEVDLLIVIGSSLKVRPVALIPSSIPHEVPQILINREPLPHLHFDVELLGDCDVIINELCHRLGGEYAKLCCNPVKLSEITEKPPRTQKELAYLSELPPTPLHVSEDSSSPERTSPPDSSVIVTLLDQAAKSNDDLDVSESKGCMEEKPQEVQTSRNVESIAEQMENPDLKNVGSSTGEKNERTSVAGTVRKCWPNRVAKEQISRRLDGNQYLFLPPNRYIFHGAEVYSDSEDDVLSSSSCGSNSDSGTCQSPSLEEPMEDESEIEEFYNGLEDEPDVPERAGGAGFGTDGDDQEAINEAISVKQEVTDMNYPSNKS
Assay: Mass spectrometry based assay to identify modulators of SIRT1 activity (deacetylation of p53-based acetylated peptide)
Format: biochemical
Conditions: 10 nM SIRT1, 0.5 μM peptide substrate, 120 μM βNAD+, 25 minutes at 25° C.; for EC1.5 μM: SIRT1 activation
Source text: A mass spectrometry based assay was used to identify modulators of SIRT1 activity. The mass spectrometry based assay utilizes a peptide having 20 amino acid residues as follows: Ac-EE-K(biotin)-GQSTSSHSK(Ac)NleSTEG-K(5TMR)-EE-NH2 (SEQ ID NO: 1) wherein K(Ac) is an acetylated lysine residue and Nle is a norleucine. The peptide is labeled with the fluorophore 5TMR (excitation 540 nm/emission 580 nm) at the C-terminus. The sequence of the peptide substrate is based on p53 with several modifications. In addition, the methionine residue naturally present in the sequence was replaced with the norleucine because the methionine may be susceptible to oxidation during synthesis and purification.
The mass spectrometry assay is conducted as follows: 0.5 μM peptide substrate and 120 μM βNAD^+ is incubated with 10 nM SIRT1 for 25 minutes at 25° C. in a reaction buffer (50 mM Tris-acetate pH 8, 137 mM NaCl, 2.7 mM KCl, 1 mM MgCl2, 5 mM DTT, 0.05% BSA). Test compounds may be added to the reaction as described above. […] After the 25 minute incubation with SIRT1, 10 μL of 10% formic acid is added to stop the reaction. Reactions are sealed and frozen for later mass spec analysis. Determination of the mass of the substrate peptide allows for precise determination of the degree of acetylation (i.e. starting material) as compared to deacetylated peptide (product).
A control for inhibition of sirtuin activity is conducted by adding 1 μL of 500 mM nicotinamide as a negative control at the start of the reaction (e.g., permits determination of maximum sirtuin inhibition). A control for activation of sirtuin activity is conducted using 10 nM of sirtuin protein, with 1 μL of DMSO in place of compound, to determine the amount of deacetylation of the substrate at a given timepoint within the linear range of the assay. This timepoint is the same as that used for test compounds and, within the linear range, the endpoint represents a change in velocity.
For the above assay, SIRT1 protein was expressed and purified as follows. […] The protein was expressed by induction with 1 mM IPTG as an N-terminal His-tag fusion protein at 18° C. overnight and harvested at 30,000×g. Cells were lysed with lysozyme in lysis buffer (50 mM Tris-HCl, 2 mM Tris[2-carboxyethyl]phosphine (TCEP), 10 μM ZnCl2, 200 mM NaCl) and further treated with sonication for 10 min for complete lysis. The protein was purified over a Ni-NTA column (Amersham) and fractions containing pure protein were pooled, concentrated and run over a sizing column (Sephadex S200 26/60 global). The peak containing soluble protein was collected and run on an Ion-exchange column (MonoQ). Gradient elution (200 mM-500 mM NaCl) yielded pure protein. This protein was concentrated and dialyzed against dialysis buffer (20 mM Tris-HCl, 2 mM TCEP) overnight. The protein was aliquoted and frozen at −80° C. until further use.
Sirtuin modulating compounds that activated SIRT1 were identified using the assay described above and are shown below in Tables 1 and 2. The EC1.5 values for the activating compounds are represented by A (EC1.5<1.0 μM), B (EC1.5 1-25 μM), C (EC1.5>25 μM). The percent maximum fold activation is represented by A (Fold activation>200%) or B (Fold Activation<200%).

| % Fold Act. (percent maximum fold activation) | EC1.5 μM | SMILES |
| --- | --- | --- |
| A (Fold activation>200%) | A (EC1.5<1.0 μM) | Cn1c(-c2cccc(C(F)(F)F)c2)nc2c(NC(=O)c3ccncn3)cccc2c1=O [Compound 245] |
| B (Fold Activation<200%) | B (EC1.5 1-25 μM) | CC(C)Cn1c(-c2cccc(C(F)(F)F)c2)nc2c(C(=O)Nc3ccccn3)cccc2c1=O [Compound 271] |
| A (Fold activation>200%) | A (EC1.5<1.0 μM) | Cn1c(-c2cccc(C(F)(F)F)c2)nc2c(C(=O)Nc3nc(CN4CCOCC4)cs3)cccc2c1=O [Compound 309] |
| B (Fold Activation<200%) | C (EC1.5>25 μM) | Cn1c(-c2ccccn2)nc2c(C(=O)Nc3ccccn3)cccc2c1=O [Compound 255] |
| A (Fold activation>200%) | B (EC1.5 1-25 μM) | O=C(Nc1cccc2c(=O)cc(-c3cccc(Cl)c3)[nH]c12)c1cscn1 [Compound 446] |
| A (Fold activation>200%) | A (EC1.5<1.0 μM) | Cn1c(-c2cccc(C(F)(F)F)c2)nc2c(NC(=O)c3cnccn3)cccc2c1=O [Compound 202] |
| B (Fold Activation<200%) | B (EC1.5 1-25 μM) | Cn1c(-c2ccc(C(F)(F)F)cc2)nc2c(NC(=O)c3cnccn3)cccc2c1=O [Compound 251] |
| B (Fold Activation<200%) | C (EC1.5>25 μM) | Cn1c(-c2ccncc2)nc2c(C(=O)Nc3ccccn3)cccc2c1=O [Compound 223] |
| A (Fold activation>200%) | A (EC1.5<1.0 μM) | Cn1c(-c2cccc(C(F)(F)F)c2)nc2c(NC(=O)c3cccc(CN4CCOCC4)c3)cccc2c1=O [Compound 338] |
| A (Fold activation>200%) | A (EC1.5<1.0 μM) | Cn1c(-c2cccc(C(F)(F)F)c2)nc2c(C(=O)Nc3cncc(OCC(O)CO)n3)cccc2c1=O (stereo not shown) [Compound 354] |
| B (Fold Activation<200%) | C (EC1.5>25 μM) | Cn1c(-c2ccc(C(F)(F)F)cc2)nc2c(C(=O)Nc3ccccn3)cccc2c1=O [Compound 208] |
| A (Fold activation>200%) | A (EC1.5<1.0 μM) | Cn1c(-c2cccc(C(F)(F)F)c2)nc2c(C(=O)Nc3cnccn3)cccc2c1=O [Compound 219] |
| A (Fold activation>200%) | A (EC1.5<1.0 μM) | O=C(Nc1cccnc1)c1cccc2c(=O)cc(-c3ccccc3OC(F)(F)F)[nH]c12 [Compound 439] |
| B (Fold Activation<200%) | B (EC1.5 1-25 μM) | Cn1c(-c2ccccc2Cl)nc2c(C(=O)Nc3ccccn3)cccc2c1=O [Compound 242] |
| A (Fold activation>200%) | A (EC1.5<1.0 μM) | O=C(Nc1cccc2c(=O)cc(-c3cccc(C(F)(F)F)c3)[nH]c12)c1cnccn1 [Compound 409, N-(4-oxo-2-(3-(trifluoromethyl)phenyl)-1,4-dihydroquinolin-8-yl)pyrazine-2-carboxamide] |
| A (Fold activation>200%) | B (EC1.5 1-25 μM) | Cn1ccnc1C(=O)Nc1cccc2c(=O)n(C)c(-c3cccc(C(F)(F)F)c3)nc12 [Compound 238] |

| % Fold Act. (percent maximum fold activation) | EC1.5 μM | SMILES |
| --- | --- | --- |
| B (Fold Activation<200%) | C (EC1.5>25 μM) | Cn1c(-c2cccc(C#N)c2)nc2c(C(=O)Nc3ccccn3)cccc2c1=O [Compound 253] |
| B (Fold Activation<200%) | C (EC1.5>25 μM) | Cn1c(-c2ccccc2N2CCOCC2)nc2c(C(=O)Nc3ccccn3)cccc2c1=O [Compound 216] |
| A (Fold activation>200%) | B (EC1.5 1-25 μM) | O=C(Nc1cccc2c(=O)n(CCN3CCCC3)c(-c3cccc(C(F)(F)F)c3)nc12)c1cnccn1 [Compound 235] |
| A (Fold activation>200%) | A (EC1.5<1.0 μM) | O=C(Nc1cccc2c(=O)cc(-c3cccc(C(F)(F)F)c3)[nH]c12)c1ccccn1 [Compound 408] |
| A (Fold activation>200%) | B (EC1.5 1-25 μM) | Cc1ncsc1-c1nc2c(NC(=O)c3cnccn3)cccc2c(=O)n1C [Compound 284] |
| B (Fold Activation<200%) | C (EC1.5>25 μM) | CCCn1c(-c2cccc(C(F)(F)F)c2)nc2c(C(=O)Nc3ccccn3)cccc2c1=O [Compound 270] |
| A (Fold activation>200%) | B (EC1.5 1-25 μM) | Cn1c(-c2cccc(S(C)(=O)=O)c2)nc2c(C(=O)Nc3ccccn3)cccc2c1=O [Compound 222] |
| B (Fold Activation<200%) | C (EC1.5>25 μM) | Cn1c(-c2ccc(OC(F)(F)F)cc2)nc2c(NC(=O)c3cnccn3)cccc2c1=O [Compound 252] |
| B (Fold Activation<200%) | C (EC1.5>25 μM) | Cn1c(-c2ccccn2)nc2c(NC(=O)c3cnccn3)cccc2c1=O [Compound 277] |
| A (Fold activation>200%) | B (EC1.5 1-25 μM) | O=C(Nc1cccnc1)c1cccc2c(=O)cc(-c3ccccc3Cl)[nH]c12 [Compound 441] |
| A (Fold activation>200%) | A (EC1.5<1.0 μM) | O=C(Nc1cccc2c(=O)cc(-c3cccc(C(F)(F)F)c3)[nH]c12)c1cccc(F)n1 [Compound 424] |
| A (Fold activation>200%) | A (EC1.5<1.0 μM) | COc1cc(OC)nc(C(=O)Nc2cccc3c(=O)cc(-c4cccc(C(F)(F)F)c4)[nH]c23)n1 [Compound 423] |
| A (Fold activation>200%) | B (EC1.5 1-25 μM) | Cn1c(-c2ccccc2C(F)F)nc2c(C(=O)Nc3ccccn3)cccc2c1=O [Compound 322] |
| A (Fold activation>200%) | A (EC1.5<1.0 μM) | O=C(Nc1cccc2c(=O)cc(-c3cccc(C(F)(F)F)c3)[nH]c12)c1ccncn1 [Compound 418] |
| A (Fold activation>200%) | A (EC1.5<1.0 μM) | CCc1nnc(NC(=O)c2cccc3c(=O)n(C)c(-c4cccc(C(F)(F)F)c4)nc23)s1 [Compound 294] |
| A (Fold activation>200%) | A (EC1.5<1.0 μM) | Cn1c(-c2cccc(C(F)(F)F)c2)nc2c(C(=O)Nc3cccc(N4CCOCC4)n3)cccc2c1=O [Compound 293] |
